Test results as given in patent publication US10597388B2, “Pyridazinone herbicides” (FMC CORPORATION, priority 2014, dated 2020).

How the values were obtained:
Test in all cases: Test D controlled growth environment herbicide test, pre- and postemergence
Assay type in all cases: in vivo
[1] = system: deadnettle (henbit deadnettle, Lamium amplexicaule)
Text: (§1) Seeds of plant species selected from bluegrass (annual bluegrass, Poa annua), blackgrass (Alopecurus myosuroides), Canada thistle (Cirsium arvense), canarygrass (Phalaris minor), chickweed (common chickweed, Stellaria media), geranium, cutleaf (cutleaf geranium, Geranium dissectum), galium (catchweed bedstraw, Galium aparine), bromegrass, downy (downy bromegrass, Bromus tectorum), field poppy (Papaver rhoeas), field violet (Viola arvensis), foxtail, green (green foxtail, Setaria viridis), deadnettle (henbit deadnettle, Lamium amplexicaule), ryegrass, Italian (Italian ryegrass, Lolium multiflorum), kochia (Kochia scoparia), lambsquarters (Chenopodium album), oilseed rape (Brassica napus), pigweed (Amaranthus retroflexus), chamomile (scentless chamomile, Matricaria inodora), Russian thistle (Salsola kali), speedwell (bird's-eye speedwell, Veronica persica), barley, spring (spring barley, Hordeum vulgare), wheat, spring (spring wheat, Triticum aestivum), buckwheat, wild (wild buckwheat, Polygonum convolvulus), mustard, wild (wild mustard, Sinapis arvensis), oat, wild (wild oat, Avena fatua), radish, wild (wild radish, Raphanus raphanistrum), windgrass (Apera spica-venti), barley, winter (winter barley, Hordeum vulgare), and wheat, winter (winter wheat, Triticum aestivum) were planted into a silt loam soil and treated preemergence with test chemicals formulated in a non-phytotoxic solvent mixture which included a surfactant.
(§2) At the same time, these species were planted in pots containing Redi-Earth® planting medium (Scotts Company, 14111 Scottslawn Road, Marysville, Ohio 43041) comprising spaghnum peat moss, vermiculite, wetting agent and starter nutrients and treated with postemergence applications of the test chemicals formulated in the same manner. Plants ranged in height from 2 to 18 cm (1- to 4-leaf stage). Treated plants and controls were maintained in a controlled growth environment for 14 to 21 d after which time all species were compared to controls and visually evaluated. Plant response ratings, summarized in Table D, are based on a scale of 0 to 100 where 0 is no effect and 100 is complete control. A dash (-) response means no test result.

[2] = system: wheat, spring (spring wheat, Triticum aestivum)
Text: as §1, §2

[3] = system: Russian thistle (Salsola kali)
Text: as §1, §2

[4] = system: wheat, winter (winter wheat, Triticum aestivum)
Text: as §1, §2

[5] = system: windgrass (Apera spica-venti)
Text: as §1, §2

[6] = system: foxtail, green (green foxtail, Setaria viridis)
Text: as §1, §2

[7] = system: blackgrass (Alopecurus myosuroides)
Text: as §1, §2

[8] = system: canarygrass (Phalaris minor)
Text: as §1, §2

[9] = system: lambsquarters (Chenopodium album)
Text: as §1, §2

[10] = system: ryegrass, Italian (Italian ryegrass, Lolium multiflorum)
Text: as §1, §2

[11] = system: field violet (Viola arvensis)
Text: as §1, §2

kochia (Kochia scoparia) = system: kochia (Kochia scoparia)
Text: as §1, §2

[12] = system: chickweed (common chickweed, Stellaria media)
Text: as §1, §2

[13] = Postemergence, 31 g ai/ha, scale 0 to 100 (0 no effect, 100 complete control)
[14] = Postemergence, 125 g ai/ha, visual rating on scale 0 (no effect) to 100 (complete control), 14 to 21 d
[15] = Postemergence, 250 g ai/ha, scale 0 to 100 (0 no effect, 100 complete control)
[16] = Preemergence, 62 g ai/ha, scale 0 to 100 (0 no effect, 100 complete control)
[17] = Preemergence, 125 g ai/ha, scale 0 to 100 (0 no effect, 100 complete control)
[18] = Preemergence, 250 g ai/ha, scale 0 to 100 (0 no effect, 100 complete control)
[19] = postemergence, 62 g ai/ha, scale 0 to 100, 0 no effect, 100 complete control

Cc1ccc2ccc(C)c(-c3c(O)c(C)nn(C)c3=O)c2c1 [Compound 60]
Deadnettle plant response rating [1, 13]: 70 | Plant response rating, Deadnettle [1, 14]: 95 | Plant response rating, Deadnettle [1, 15]: 95 | Plant response rating (scale of 0 to 100), Deadnettle ([1]; Preemergence, 31 g ai/ha): 35 | Plant response rating, Deadnettle [1, 16]: 90 | Plant response rating, Deadnettle [1, 17]: 85 | Plant response rating, Deadnettle [1, 18]: 100 | Plant response rating, Deadnettle [1, 19]: 75 | Wheat, Spring plant response rating [2, 13]: 30 | Plant response rating, Wheat, Spring [2, 14]: 40 | Plant response rating, Wheat, Spring [2, 15]: 55 | Plant response rating (scale of 0 to 100), Wheat, Spring ([2]; Preemergence, 31 g ai/ha): 35 | Plant response rating, Wheat, Spring [2, 16]: 55 | Plant response rating, Wheat, Spring [2, 17]: 65 | Plant response rating, Wheat, Spring [2, 18]: 75 | Plant response rating, Wheat, Spring [2, 19]: 35 | Russian Thistle plant response rating [3, 13]: 80 | Plant response rating, Russian Thistle [3, 14]: 80 | Plant response rating, Russian Thistle [3, 15]: 85 | Plant response rating (scale of 0 to 100), Russian Thistle ([3]; Preemergence, 31 g ai/ha): 15 | Plant response rating, Russian Thistle [3, 16]: 20 | Plant response rating, Russian Thistle [3, 17]: 35 | Plant response rating, Russian Thistle [3, 18]: 70 | Plant response rating, Russian Thistle [3, 19]: 80 | Wheat, Winter plant response rating [4, 13]: 25 | Plant response rating, Wheat, Winter [4, 14]: 35 | Plant response rating, Wheat, Winter [4, 15]: 40 | Plant response rating (scale of 0 to 100), Wheat, Winter ([4]; Preemergence, 31 g ai/ha): 10 | Plant response rating, Wheat, Winter [4, 16]: 35 | Plant response rating, Wheat, Winter [4, 17]: 55 | Plant response rating, Wheat, Winter [4, 18]: 55 | Plant response rating, Wheat, Winter [4, 19]: 30 | Windgrass plant response rating [5, 13]: 80 | Plant response rating, Windgrass [5, 14]: 90 | Plant response rating, Windgrass [5, 15]: 98 | Plant response rating (scale of 0 to 100), Windgrass ([5]; Preemergence, 31 g ai/ha): 85 | Plant response rating, Windgrass [5, 16]: 90 | Plant response rating, Windgrass [5, 17]: 100 | Plant response rating, Windgrass [5, 18]: 100 | Plant response rating, Windgrass [5, 19]: 85 | Foxtail, Green plant response rating [6, 13]: 35 | Plant response rating, Foxtail, Green [6, 14]: 65 | Plant response rating, Foxtail, Green [6, 15]: 75 | Plant response rating (scale of 0 to 100), Foxtail, Green ([6]; Preemergence, 31 g ai/ha): 70 | Plant response rating, Foxtail, Green [6, 16]: 80 | Plant response rating, Foxtail, Green [6, 17]: 95 | Plant response rating, Foxtail, Green [6, 18]: 100 | Plant response rating, Foxtail, Green [6, 19]: 40 | Blackgrass plant response rating [7, 13]: 75 | Plant response rating, Blackgrass [7, 14]: 85 | Plant response rating, Blackgrass [7, 15]: 90 | Plant response rating (scale of 0 to 100), Blackgrass ([7]; Preemergence, 31 g ai/ha): 90 | Plant response rating, Blackgrass [7, 16]: 95 | Plant response rating, Blackgrass [7, 17]: 100 | Plant response rating, Blackgrass [7, 18]: 100 | Plant response rating, Blackgrass [7, 19]: 80 | Canarygrass plant response rating [8, 13]: 80 | Plant response rating, Canarygrass [8, 14]: 85 | Plant response rating, Canarygrass [8, 15]: 90 | Plant response rating (scale of 0 to 100), Canarygrass ([8]; Preemergence, 31 g ai/ha): 90 | Plant response rating, Canarygrass [8, 16]: 95 | Plant response rating, Canarygrass [8, 17]: 95 | Plant response rating, Canarygrass [8, 18]: 100 | Plant response rating, Canarygrass [8, 19]: 80 | Lambsquarters plant response rating [9, 13]: 80 | Plant response rating, Lambsquarters [9, 14]: 80 | Plant response rating, Lambsquarters [9, 15]: 80 | Plant response rating (scale of 0 to 100), Lambsquarters ([9]; Preemergence, 31 g ai/ha): 100 | Plant response rating, Lambsquarters [9, 16]: 100 | Plant response rating, Lambsquarters [9, 17]: 100 | Plant response rating, Lambsquarters [9, 18]: 100 | Plant response rating, Lambsquarters [9, 19]: 80 | Ryegrass, Italian plant response rating [10, 13]: 80 | Plant response rating, Ryegrass, Italian [10, 14]: 90 | Plant response rating, Ryegrass, Italian [10, 15]: 95 | Plant response rating (scale of 0 to 100), Ryegrass, Italian ([10]; Preemergence, 31 g ai/ha): 100 | Plant response rating, Ryegrass, Italian [10, 16]: 100 | Plant response rating, Ryegrass, Italian [10, 17]: 100 | Plant response rating, Ryegrass, Italian [10, 18]: 100 | Plant response rating, Ryegrass, Italian [10, 19]: 90 | Field Violet plant response rating [11, 13]: 80 | Plant response rating, Field Violet [11, 14]: 100 | Plant response rating, Field Violet [11, 15]: 85 | Plant response rating (scale of 0 to 100), Field Violet ([11]; Preemergence, 31 g ai/ha): 95 | Plant response rating, Field Violet [11, 16]: 100 | Plant response rating, Field Violet [11, 17]: 100 | Plant response rating, Field Violet [11, 18]: 100 | Plant response rating, Field Violet [11, 19]: 95 | Kochia plant response rating (kochia (Kochia scoparia); [13]): 70 | Plant response rating, Kochia (kochia (Kochia scoparia); [14]): 90 | Plant response rating, Kochia (kochia (Kochia scoparia); [15]): 95 | Plant response rating (scale of 0 to 100), Kochia (kochia (Kochia scoparia); Preemergence, 31 g ai/ha): 15 | Plant response rating, Kochia (kochia (Kochia scoparia); [16]): 20 | Plant response rating, Kochia (kochia (Kochia scoparia); [17]): 60 | Plant response rating, Kochia (kochia (Kochia scoparia); [18]): 75 | Plant response rating, Kochia (kochia (Kochia scoparia); [19]): 85 | Chickweed plant response rating [12, 13]: 85 | Plant response rating, Chickweed [12, 14]: 100 | Plant response rating, Chickweed [12, 15]: 100 | Plant response rating (scale of 0 to 100), Chickweed ([12]; Preemergence, 31 g ai/ha): 95 | Plant response rating, Chickweed [12, 16]: 100 | Plant response rating, Chickweed [12, 17]: 100 | Plant response rating, Chickweed [12, 18]: 100 | Plant response rating, Chickweed [12, 19]: 100
